Measurements: patent US9573911B2, “Diphosphate mimetics and uses thereof” (President and Fellows of Harvard College, priority 2011, dated 2017)

How the values were obtained:
Assay in all cases: Kinase profiling, Invitrogen Z'-LYTE
Format in all cases: biochemical
Settings in all cases: Table 2
[1] = molecular target: T1, FLT3 D835Y (Homo sapiens, UniProt P36888, D835Y)
T1 construct: purchased Invitrogen
T1 sequence (P36888 27-993 D835Y): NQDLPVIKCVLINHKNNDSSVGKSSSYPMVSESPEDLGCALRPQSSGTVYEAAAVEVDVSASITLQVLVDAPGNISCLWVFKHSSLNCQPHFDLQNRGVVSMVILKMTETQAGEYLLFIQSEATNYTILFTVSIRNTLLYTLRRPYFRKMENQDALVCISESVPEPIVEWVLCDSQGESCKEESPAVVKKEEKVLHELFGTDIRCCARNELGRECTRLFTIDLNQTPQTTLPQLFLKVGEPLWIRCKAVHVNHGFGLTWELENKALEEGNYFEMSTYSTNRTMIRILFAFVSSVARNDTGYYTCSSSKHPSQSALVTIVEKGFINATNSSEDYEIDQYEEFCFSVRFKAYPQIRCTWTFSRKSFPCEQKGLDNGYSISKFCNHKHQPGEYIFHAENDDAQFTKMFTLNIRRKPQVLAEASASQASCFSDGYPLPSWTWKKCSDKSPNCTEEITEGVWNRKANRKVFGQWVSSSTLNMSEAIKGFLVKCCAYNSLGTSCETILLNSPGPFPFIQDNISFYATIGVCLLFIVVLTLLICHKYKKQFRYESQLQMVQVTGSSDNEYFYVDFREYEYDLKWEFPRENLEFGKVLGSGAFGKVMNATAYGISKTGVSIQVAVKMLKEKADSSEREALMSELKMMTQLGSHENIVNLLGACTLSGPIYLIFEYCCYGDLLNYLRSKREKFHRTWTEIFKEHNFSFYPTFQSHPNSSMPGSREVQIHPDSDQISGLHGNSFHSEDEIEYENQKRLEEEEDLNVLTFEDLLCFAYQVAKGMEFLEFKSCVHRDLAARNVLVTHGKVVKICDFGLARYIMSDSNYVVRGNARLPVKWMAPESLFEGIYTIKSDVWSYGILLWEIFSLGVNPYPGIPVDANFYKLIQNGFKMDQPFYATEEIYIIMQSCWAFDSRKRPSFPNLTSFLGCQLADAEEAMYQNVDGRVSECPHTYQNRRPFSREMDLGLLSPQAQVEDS
Method: (§1) Kinase profiling was conducted using Invitrogen Z'-LYTE screening protocol and assay conditions found at www.invitrogen.com. Compound (2) inhibited PLK1 completely at 5 μM.

[2] = molecular target: T2, PRKX (Homo sapiens, UniProt P51817)
T2 construct: purchased Invitrogen
T2 sequence (P51817 1-358): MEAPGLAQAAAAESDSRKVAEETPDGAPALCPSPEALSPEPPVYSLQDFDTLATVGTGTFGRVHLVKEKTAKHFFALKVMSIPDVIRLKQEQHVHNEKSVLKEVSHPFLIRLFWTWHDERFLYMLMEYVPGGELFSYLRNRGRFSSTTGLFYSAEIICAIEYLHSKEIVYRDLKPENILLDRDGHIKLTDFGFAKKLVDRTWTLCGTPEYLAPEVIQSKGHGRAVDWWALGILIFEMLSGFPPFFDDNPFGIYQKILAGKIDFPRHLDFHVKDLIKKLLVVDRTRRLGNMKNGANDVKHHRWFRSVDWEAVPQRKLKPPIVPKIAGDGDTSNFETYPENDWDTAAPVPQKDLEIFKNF
Method: as §1

[3] = molecular target: T3, MST1R (RON) (Homo sapiens, UniProt Q04912)
T3 construct: purchased Invitrogen
Method: as §1

[4] = molecular target: T4, CDK5/p25 (Homo sapiens, UniProt Q00535)
T4 construct: purchased Invitrogen
Method: as §1

[5] = molecular target: T5, FGR (Homo sapiens, UniProt P09769)
T5 construct: purchased Invitrogen
Method: as §1

[6] = molecular target: T6, AURKA (Aurora A) (Homo sapiens, UniProt O14965)
T6 construct: purchased Invitrogen
T6 sequence (O14965 1-403): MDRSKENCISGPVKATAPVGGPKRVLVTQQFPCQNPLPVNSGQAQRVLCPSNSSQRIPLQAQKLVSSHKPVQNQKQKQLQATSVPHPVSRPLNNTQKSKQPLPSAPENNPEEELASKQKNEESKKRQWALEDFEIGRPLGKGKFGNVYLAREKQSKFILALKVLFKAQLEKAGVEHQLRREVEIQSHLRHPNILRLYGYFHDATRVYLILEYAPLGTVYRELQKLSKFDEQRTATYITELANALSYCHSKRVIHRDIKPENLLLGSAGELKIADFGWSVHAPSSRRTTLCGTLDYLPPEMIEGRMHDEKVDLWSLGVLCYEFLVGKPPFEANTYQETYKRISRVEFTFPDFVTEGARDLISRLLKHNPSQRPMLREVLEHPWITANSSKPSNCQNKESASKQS
Method: as §1

T5 sequence (P09769 whole entry): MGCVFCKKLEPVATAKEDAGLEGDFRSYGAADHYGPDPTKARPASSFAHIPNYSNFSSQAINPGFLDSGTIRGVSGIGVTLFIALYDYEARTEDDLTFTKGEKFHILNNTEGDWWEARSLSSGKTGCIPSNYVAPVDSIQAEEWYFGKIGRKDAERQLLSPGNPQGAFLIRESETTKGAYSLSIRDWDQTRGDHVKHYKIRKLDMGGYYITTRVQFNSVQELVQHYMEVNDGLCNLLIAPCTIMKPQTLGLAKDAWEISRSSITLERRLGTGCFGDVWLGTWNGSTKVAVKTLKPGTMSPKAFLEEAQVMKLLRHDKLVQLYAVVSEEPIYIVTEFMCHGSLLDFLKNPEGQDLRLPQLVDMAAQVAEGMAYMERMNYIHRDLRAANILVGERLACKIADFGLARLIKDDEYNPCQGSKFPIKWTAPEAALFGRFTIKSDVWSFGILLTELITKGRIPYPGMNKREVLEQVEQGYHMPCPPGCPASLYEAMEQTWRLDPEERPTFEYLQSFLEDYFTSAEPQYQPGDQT
T3 sequence (Q04912 25-1400): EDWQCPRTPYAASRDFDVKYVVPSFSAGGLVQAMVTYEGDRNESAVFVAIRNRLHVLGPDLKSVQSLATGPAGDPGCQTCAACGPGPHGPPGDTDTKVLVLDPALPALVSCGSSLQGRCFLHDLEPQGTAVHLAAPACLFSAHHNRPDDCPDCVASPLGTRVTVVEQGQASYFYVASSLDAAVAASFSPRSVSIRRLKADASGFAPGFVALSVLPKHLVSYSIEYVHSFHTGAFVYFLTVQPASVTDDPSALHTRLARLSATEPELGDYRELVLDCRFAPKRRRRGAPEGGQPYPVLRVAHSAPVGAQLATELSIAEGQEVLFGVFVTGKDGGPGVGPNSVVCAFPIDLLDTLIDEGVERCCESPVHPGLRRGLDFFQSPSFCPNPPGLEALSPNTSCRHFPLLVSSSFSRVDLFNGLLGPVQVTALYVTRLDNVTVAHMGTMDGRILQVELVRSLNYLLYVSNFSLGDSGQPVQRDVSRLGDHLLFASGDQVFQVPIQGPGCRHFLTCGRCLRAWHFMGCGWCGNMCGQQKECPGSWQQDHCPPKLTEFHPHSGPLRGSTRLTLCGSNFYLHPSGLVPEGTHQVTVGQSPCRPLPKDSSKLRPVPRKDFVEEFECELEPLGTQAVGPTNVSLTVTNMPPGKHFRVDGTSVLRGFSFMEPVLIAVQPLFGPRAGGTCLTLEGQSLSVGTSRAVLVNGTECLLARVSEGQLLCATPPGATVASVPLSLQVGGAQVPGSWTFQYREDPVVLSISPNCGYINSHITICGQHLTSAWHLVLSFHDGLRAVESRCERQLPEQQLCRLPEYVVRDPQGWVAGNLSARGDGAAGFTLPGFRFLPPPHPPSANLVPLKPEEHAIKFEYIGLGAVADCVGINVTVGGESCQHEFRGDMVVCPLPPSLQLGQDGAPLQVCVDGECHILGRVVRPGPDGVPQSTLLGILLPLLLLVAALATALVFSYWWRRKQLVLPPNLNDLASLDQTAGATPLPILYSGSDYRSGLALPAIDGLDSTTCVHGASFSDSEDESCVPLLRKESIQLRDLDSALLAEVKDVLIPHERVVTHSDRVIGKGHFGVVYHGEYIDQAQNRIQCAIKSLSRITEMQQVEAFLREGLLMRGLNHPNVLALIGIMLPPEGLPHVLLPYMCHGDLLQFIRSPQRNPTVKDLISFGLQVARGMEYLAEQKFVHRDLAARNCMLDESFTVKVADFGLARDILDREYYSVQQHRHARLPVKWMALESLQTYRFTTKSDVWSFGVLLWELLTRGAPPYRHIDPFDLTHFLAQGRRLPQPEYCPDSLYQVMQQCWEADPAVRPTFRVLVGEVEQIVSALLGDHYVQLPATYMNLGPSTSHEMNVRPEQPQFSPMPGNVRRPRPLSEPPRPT
T4 sequence (Q00535 whole entry): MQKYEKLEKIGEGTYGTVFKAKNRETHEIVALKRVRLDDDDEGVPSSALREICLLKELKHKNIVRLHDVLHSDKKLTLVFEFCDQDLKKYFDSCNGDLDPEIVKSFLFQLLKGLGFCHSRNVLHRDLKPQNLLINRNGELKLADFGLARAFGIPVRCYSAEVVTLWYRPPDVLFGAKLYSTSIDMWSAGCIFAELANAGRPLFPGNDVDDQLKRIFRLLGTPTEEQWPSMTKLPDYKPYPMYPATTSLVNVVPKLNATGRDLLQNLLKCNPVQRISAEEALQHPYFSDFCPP
T4 sequence (Q15078 99-307 partner limits assumed): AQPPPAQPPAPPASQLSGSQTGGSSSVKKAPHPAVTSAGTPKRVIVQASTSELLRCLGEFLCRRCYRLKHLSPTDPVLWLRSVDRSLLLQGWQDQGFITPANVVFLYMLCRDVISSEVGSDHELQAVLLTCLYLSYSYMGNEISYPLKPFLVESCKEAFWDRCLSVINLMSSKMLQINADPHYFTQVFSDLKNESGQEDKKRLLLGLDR

**Q.** Which “% Inhibition Point 1” value [1] does the source give for `COc1ccc(OC(=O)n2c(=O)oc3cc(C(C)=O)ccc32)cc1` [Compound 2] here?
**A.** −41%

**Q.** What about the “% Inhibition Point 2” value [1] of the same compound?
**A.** −43%

**Q.** And the “% Inhibition mean” value [1]?
**A.** −42%

**Q.** What about the “% Inhibition Point 1” value [2] of the same compound?
**A.** −135%

**Q.** And the “% Inhibition Point 2” value [2]?
**A.** −134%

**Q.** And the “% Inhibition mean” value [2]?
**A.** −135%

**Q.** And the “% Inhibition Point 1” value [3]?
**A.** −258%

**Q.** What about the “% Inhibition Point 2” value [3] of the same compound?
**A.** −245%

**Q.** What about the “% Inhibition mean” value [3] of the same compound?
**A.** −252%

**Q.** And the “% Inhibition Point 1” value [4]?
**A.** −322%

**Q.** And the “% Inhibition Point 2” value [4]?
**A.** −286%

**Q.** And the “% Inhibition mean” value [4]?
**A.** −304%

**Q.** And the “% Inhibition Point 1” value [5]?
**A.** 21%

**Q.** What about the “% Inhibition Point 2” value [5] of the same compound?
**A.** 21%

**Q.** And the “% Inhibition mean” value [5]?
**A.** 21%

**Q.** What about the “% Inhibition Point 1” value [6] of the same compound?
**A.** −146%

**Q.** And the “% Inhibition Point 2” value [6]?
**A.** −146%

**Q.** And the “% Inhibition mean” value [6]?
**A.** −146%
